How the values were obtained:
DuNE cells = experiment: Colony formation assay, DuNE cells; format: cell-based; details: 14 days, vs vehicle (~50 colonies)
Excerpt: (§1) CSCs have characteristic tumorigenic, self-renewal, and differentiation properties. The self-renewal ability is hijacked by CSCs that makes them both tumorigenic and capable of sustaining long-term tumor growth, which can be evaluated by 3D spheroid and colony formation assays. We established a DuNE spheroid model in which DuNE cells formed 3D spheroids in 96-well plates (Figure S3). By integrating this 3D culture with the Incucyte live-cell imaging system, we quantified the sizes of the spheroid growth over 0–6 days to generate a spheroid growth curve. Using this model system, we treated the DuNE spheroids with increasing doses (0–100 μM) of C1632, Ln15, and Ln268 for 0–6 days. […] In addition, classic colony formation assays were used to measure the stemness in the DuNE model. Colony formation counts, which were ~50 under vehicle treatment after 14 days, decreased by 22% in C1632-treated plates, and by 75% and 96% in the Ln15 and Ln268 treated plates, respectively (Fig. 4D).
In the colony formation assays, cancer cells were seeded in 0.7% soft agar in a 6-well plate, with a 1% soft agar bottom base coating. Cells were allowed to grow for 14 days to form colonies. Colonies were stained with crystal violet and imaged by stitching 5X field images together to capture the entire well (Zeiss light microscope [Carl Zeiss]). Colony numbers were counted according to their diameters (100-300um or >300um). Three independent biological replicates were performed for all the assays.

DuNE spheroids = experiment: DuNE 3D spheroid growth (Incucyte); format: cell-based; details: 0-100 μM, 0-6 days, read-out: concentration to achieve 50% spheroid growth inhibition
Excerpt: as §1
For a spheroid generation, 1000 cells/well were seeded in 96-well ULA round-bottomed plates (Corning, Amsterdam) using a multichannel pipette. 3D multicellular spheroids were spontaneously generated after 24 h culture. Plates were incubated for 6 days at 37 °C, 5% CO2, and 95% humidity. DuNE and Du145 cells were cultured in DMEM with 10% FBS. Fully automated image analysis of tumor spheroids was carried out with the Incucyte® S3 Live-Cell Analysis System. The size and shape of multicellular spheroids were analyzed by using the Incucyte® Spheroid Analysis Software Module.

Lin28a protein = target: T1, Lin28a protein (Homo sapiens, UniProt Q9H9Z2); experiment: EMSA with Lin28a protein and pre-let-7d probe; format: binding; details: same EMSA conditions
T1 sequence (Q9H9Z2 1-209): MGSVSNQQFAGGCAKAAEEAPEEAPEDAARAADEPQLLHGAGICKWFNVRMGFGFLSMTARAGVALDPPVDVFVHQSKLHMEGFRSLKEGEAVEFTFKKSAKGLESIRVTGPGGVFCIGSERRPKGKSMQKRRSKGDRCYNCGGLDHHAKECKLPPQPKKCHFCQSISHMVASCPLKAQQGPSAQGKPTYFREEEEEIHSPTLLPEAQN
Method: (§2) We next validated the newly developed compounds using EMSA, a non-florescent-based assay to detect Lin28b ZKD:pre-let-7 complex formation. Similar to the FP assays, we first optimized the experimental conditions by titrating: (1) IRDye800-labeled pre-let-7d RNA probe, (2) Lin28b ZKD protein, and (3) non-labeled pre-let-7 probe as a competitor (Fig. 2C). For the validation experiments, 1 μM Lin28 ZKD and 10 nM of IRDye800-labeled pre-let-7d probe were mixed with each candidate compound. Compounds C1632 and Ln15 were used as control Lin28 inhibitors, respectively. […] Regardless, we use these two biochemical assays to shortlist the most promising compounds for further characterization. […] While our inhibitors directly target the Lin28 ZKD, it is unclear whether C1632 may bind to domains other than the ZKD or allosterically disrupt Lin28’s capacity to bind its RNA substrates.
EMSA followed the standard protocols we published. An IRDye800CWN-labeled pre-Let-7d RNA probe (5’-IRD800CWN-[…]-3’) was purchased from IDT (Coralville, IA, USA). Lin28a or Lin28b proteins were incubated with 300 nM of probe in a standard 20 uL EMSA reaction in a reaction buffer containing 20 mM HEPES-NaOH, pH 7.4, 2 mM DTT, 3 mM MgCl2, 0.05% NP-40, protease inhibitors, and 0.1 ug poly[dI:dC]. After incubation for 30 min at 37 °C, reactions were loaded onto 4% non-denatured polyacrylamide gel in 0.5× TBE buffer. […]

Lin28b ZKD [1] = target: T2, Lin28b ZKD (Homo sapiens, UniProt Q6ZN17); experiment: EMSA, Lin28b ZKD:pre-let-7d complex formation; format: binding; details: 1 μM Lin28 ZKD, 10 nM IRDye800-labeled pre-let-7d probe
T2 sequence (Q6ZN17 127-166 limits assumed): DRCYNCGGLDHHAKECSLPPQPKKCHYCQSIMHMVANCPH
Method: as §2
EMSA followed the standard protocols we published. An IRDye800CWN-labeled pre-Let-7d RNA probe (5’-IRD800CWN-[…]-3’) was purchased from IDT (Coralville, IA, USA). Lin28a or Lin28b proteins were incubated with 300 nM of probe in a standard 20 uL EMSA reaction in a reaction buffer containing 20 mM HEPES-NaOH, pH 7.4, 2 mM DTT, 3 mM MgCl2, 0.05% NP-40, protease inhibitors, and 0.1 ug poly[dI:dC]. After incubation for 30 min at 37 °C, reactions were loaded onto 4% non-denatured polyacrylamide gel in 0.5× TBE buffer. The RNA oligo bands were visualized by using the Li-Cor Odyssey 9120 Infrared Imaging System.

cancer cells = system: cancer cells; design: method as in PMID 27548809; details: cited from earlier work
Lin28b ZKD [2] = target: T2, Lin28b ZKD; experiment: Fluorescence polarization (FP) assay, Lin28b ZKD:pre-let-7d interaction; format: binding; details: 10 nM pre-let-7d probe, 1 μM Lin28b ZKD
Method: We conducted two biochemical assays, FP and EMSA, to validate the predicted compounds. To optimize the FP assays, we performed a series of titrations using: (1) FAM-labeled pre-let-7d RNA probe, (2) Lin28b ZKD protein, and (3) non-labeled pre-let-7 probe as a competitor (Fig. 2A). These assays yielded the optimal concentrations required for the subsequent FP validation assays, namely 10 nM for the pre-let-7d probe and 1 μM for Lin28b ZKD protein. The FP signal from the free probe was set as 0%, while the signal from the probe-ZKD complex in the absence of compounds was set as 100%. C1632 was used as a control Lin28 inhibitor (Fig. 2B). […] Since the docking pocket is almost identical between Lin28a and Lin28b homologs, we repeated the FP assays using Lin28a ZKD (Figure S2).
The fluorescein amidites (FAM)-tagged pre-Let-7d probe with the sequence of […] was purchased from Integrated DNA Technologies (IDT). The probe at the concentrations ranging from 1 nM to 50 uM was incubated with Lin28B (ZKD) or Lin28 (CSD+ZKD) to a final volume of 30 uL at room temperature for 20 min. To read the fluorescence, a TECAN 500 machine was used. Fluorescence polarization was calculated using the following equation:
P=(Fparrallel−Fperpendicular)/(Fparrallel+FperpendicularP)
where P is the fluorescence polarization reading, F parallel is the fluorescence intensity acquired from the parallel excitation plane, and F perpendicular is the fluorescence intensity acquired from the perpendicular direction of the excitation plane. The total fluorescence intensity is estimated using the following equation:
F=Fparallel+2FperpendicularF.
All the raw FP signal data from the TECAN 500 FP results were analyzed using Prism 8.0 (GraphPad, San Diego, CA, USA); normalized curves were plotted and IC50 values were estimated. All FP data were repeated three to five times.
Figure S1. Lin28b ZKD protein was incubated with the indicated compounds at the concentration of 0, 0.1, 0.2, 0.5, 1, 2, 5, 10, 20, 50, 100, and 200uM. FP signals were measured and plotted relative to that from vehicle.

Lin28b ZKD [3] = target: T2, Lin28b ZKD; experiment: 1H-15N HSQC NMR of Lin28b-ZKD with ligand; format: binding; details: ligand added in 20:1 molar ratio
Excerpt: Given that Ln268 is derived from the parent compound Ln15, we wanted to assess whether the improved properties of Ln268 were linked to a potential difference in its interaction with Lin28 ZKD. To this end, we collected ^1H-^15N HSQC spectra of Lin28b-ZKD, Lin28b-ZKD + Ln15, and Lin28b-ZKD + Ln268. RNA binding proteins (RBPs) commonly have binding pockets that are intrinsically disordered, as evidenced by the narrow chemical shift dispersion observed in the HQSC of Lin28b-ZKD alone (Fig. 3D). Addition of either Ln15 or Ln268 led to changes in the chemical shifts of ca. 20 residues, consistent with the change in conformation of the Lin28b-ZKD segment which encompasses residues 137–160 (three of which are prolines) upon RNA binding (Fig. 3E). Although many of the peak shifts are the same for the Ln15 and Ln268 containing samples, there are around 7 resonances where the peaks disappear in the case of Ln268.
NMR spectra were recorded at 5 °C on a Bruker Avance III 850 MHz spectrometer, equipped with a TCI cryoprobe. ^1H-^15N HSQC experiments were recorded on ^13C/^15N-labeled Lin28b ZKD (230 μM), in 20 mM d-Tris-HCl (pH 7.5), 100 mM NaCl, 1 mM d-DTT, 0.02% NaN3, 0.25 mM ZnCl2 + 1 mM IDA, and 10% D2O, to which unlabeled Ln15 and Ln268 was added, respectively. The time domain matrix was 4k by 512. Four scans were acquired per t1 increment. Spectra were processed and plotted using Topspin to a final size of 8k by 1k. For the overlays, the levels were set to the same base level in all cases, with a multiplication factor of 1.1.

Row | inhibition of Lin28a protein (EMSA) (Lin28a protein) | inhibition of Lin28b ZKD:pre-let-7d complex formation (EMSA) (Lin28b ZKD [1]) | IC50 (Lin28b ZKD [2]) | residues of Lin28b-ZKD with changed chemical shifts (1H-15N HSQC) (Lin28b ZKD [3]) | SMILES | decrease of colony formation counts (DuNE cells) | IC50 (DuNE spheroids) | concentration needed for inhibitory effects on cancer cells (cancer cells)
1 | did not observe any obvious inhibition | did not observe any obvious inhibition |  |  | CC(=O)N(C)c1cccc(-c2ccc3nnc(C)n3n2)c1 [C1632, reference compound] | 22% | 100 µM | exceeding 100 μM
2 |  |  | 9 µM | ca. 20 residues | O=c1[nH]c(Nc2ccccc2O)cs1 [Ln15] | 75% | 50 µM | 
